The record followed here is patent publication US11535621B2, “Heterobicyclic amides as inhibitors of CD38” (Ribon Therapeutics, Inc., priority 2019, dated 2022).

What is called IC50 is the concentration that gives 50% inhibition. Low readings indicate higher potency, high ones lower potency.

Sequence of Human CD38 (P28907 whole entry): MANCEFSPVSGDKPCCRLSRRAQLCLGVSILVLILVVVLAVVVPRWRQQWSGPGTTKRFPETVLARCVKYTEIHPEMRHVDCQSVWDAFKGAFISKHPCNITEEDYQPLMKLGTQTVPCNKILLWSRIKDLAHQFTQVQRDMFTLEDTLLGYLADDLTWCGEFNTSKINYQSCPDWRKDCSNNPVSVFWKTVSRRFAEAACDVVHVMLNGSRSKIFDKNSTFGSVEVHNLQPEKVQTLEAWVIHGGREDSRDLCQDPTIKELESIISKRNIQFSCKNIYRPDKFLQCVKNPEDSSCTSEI

The first experiment addresses Human CD38 (Homo sapiens (Human), UniProt P28907). Nature of the experiment: CD38 enzyme assay. It is filed as biochemical. Conditions: 2 nM CD38, NAD+ substrate, absorbance at 405 nm. The essentials: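 IC50 values come from fitting % inhibition against compound concentration with a 4-parameter logistic, or a 3-parameter fit with top/bottom fixed at 100/0 or Hill at 1. Inhibition is scaled between DMSO wells and positive-control wells treated with a quinolinone CD38 inhibitor.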
`COCCO[C@H]1CC[C@H](NC(=O)c2nc(-n3ccnc3)nc3cc[nH]c23)CC1` [Example 7, 2-(1H-Imidazol-1-yl)-N-((1r,4r)-4-(2-methoxyethoxy)cyclohexyl)-5H-pyrrolo[3,2-d]pyrimidine-4-carboxamide] returned an IC50 of 10 to 100 nM.

With `COCCO[C@H]1CC[C@H](NC(=O)c2nc(-n3ccnc3)nc3c(C)c[nH]c23)CC1` [Example 268, 2-(1H-imidazol-1-yl)-N-((1r,4r)-4-(2-methoxyethoxy)cyclohexyl)-7-methyl-5H-pyrrolo[3,2-d]pyrimidine-4-carboxamide], the IC50 was 10 to 100 nM.

In turn, `N#CC1CN([C@H]2CC[C@H](NC(=O)c3nc(-n4ccnc4)cc4cn[nH]c34)CC2)C1` [Example 269, N-((1r,4r)-4-(3-cyanoazetidin-1-yl)cyclohexyl)-5-(1H-imidazol-1-yl)-1H-pyrazolo[3,4-c]pyridine-7-carboxamide] gave an IC50 of 10 to 100 nM.

Turning to `O=C(N[C@H]1CC[C@H](NCC(F)(F)F)CC1)c1nc(-n2ccnc2)cc2ccsc12` [Example 270, 5-(1H-imidazol-1-yl)-N-((1r,4r)-4-((2,2,2-trifluoroethyl)amino)cyclohexyl)thieno[2,3-c]pyridine-7-carboxamide], the IC50 was 10 to 100 nM.

In turn, `O=C(N[C@H]1CC[C@H](CNCC(F)(F)F)CC1)c1nc(-n2ccnc2)nc2cn[nH]c12` [Example 271] showed an IC50 of 10 to 100 nM.

The molecule `CC(C)(N[C@H]1CC[C@H](NC(=O)c2nc(-n3ccnc3)nc3cc[nH]c23)CC1)C(F)(F)F` [Example 272, 2-(1H-imidazol-1-yl)-N-((1r,4r)-4-((1,1,1-trifluoro-2-methylpropan-2-yl)amino)cyclohexyl)-5H-pyrrolo[3,2-d]pyrimidine-4-carboxamide] gave a 50% inhibitory concentration (IC50) of 10 to 100 nM.

In turn, `CC(C)(N[C@H]1CC[C@H](NC(=O)c2nc(-n3ccnc3)nc3cc[nH]c23)CC1)C(F)F` [Example 273, N-((1r,4r)-4-((1,1-difluoro-2-methylpropan-2-yl)amino)cyclohexyl)-2-(1H-imidazol-1-yl)-5H-pyrrolo[3,2-d]pyrimidine-4-carboxamide] yielded an IC50 of 10 to 100 nM.

On to `C[C@]1(NCC(F)(F)F)CC[C@@H](NC(=O)c2nc(-n3ccnc3)nc3cn[nH]c23)CC1` [Example 274, 5-(1H-imidazol-1-yl)-N-((1s,4s)-4-methyl-4-((2,2,2-trifluoroethyl)amino)cyclohexyl)-1H-pyrazolo[4,3-d]pyrimidine-7-carboxamide], for which the IC50 was in the range of 10 to 100 nM.

`C[C@]1(NCC(F)(F)F)CC[C@H](NC(=O)c2nc(-n3ccnc3)nc3cn[nH]c23)CC1` [Example 275, 5-(1H-imidazol-1-yl)-N-((1r,4r)-4-methyl-4-((2,2,2-trifluoroethyl)amino)cyclohexyl)-1H-pyrazolo[4,3-d]pyrimidine-7-carboxamide] registered an IC50 of 100 to 1000 nM.

In turn, `CC(C)(N[C@H]1CC[C@H](NC(=O)c2nc(-n3ccnc3)nc3cn[nH]c23)CC1)C(F)(F)F` [Example 276, 5-(1H-imidazol-1-yl)-N-((1r,4r)-4-((1,1,1-trifluoro-2-methylpropan-2-yl)amino)cyclohexyl)-1H-pyrazolo[4,3-d]pyrimidine-7-carboxamide] displayed a half-maximal inhibitory concentration (IC50) of 10 to 100 nM.

Regarding `CC(C)(N[C@H]1CC[C@@H](NC(=O)c2nc(-n3ccnc3)nc3cn[nH]c23)CC1)C(F)(F)F` [Example 277, 5-(1H-imidazol-1-yl)-N-((1s,4s)-4-((1,1,1-trifluoro-2-methylpropan-2-yl)amino)cyclohexyl)-1H-pyrazolo[4,3-d]pyrimidine-7-carboxamide], the IC50 fell in the range of 100 to 1000 nM.

A further experiment deals with B16-F10 tumor. Nature of the experiment: Efficacy study in a B16F10 model (survival). It is filed as in vivo, C57BL/6 mouse. The settings on record: Example 7 300 mg/kg p.o. QD in combination with anti-mPD-L1 10 mg/kg i.p. QW; over vehicle or anti-mPD-L1 treated mice; p value <0.0001. How it is done:
B16-F10 tumor cells (ATCC, Cat #CRL-6475) were maintained in vitro as a monolayer culture in DMEM medium (Gibco, Cat #11995-040) supplemented with 10% heat inactivated fetal bovine serum (Biological Industries, Cat #04-002-1A), 100 U/mL penicillin and 100 µg/mL streptomycin (Hyclone, Cat #SV30010) at 37° C. in an atmosphere of 5% CO2 in air. The tumor cells were routinely subcultured twice weekly by trypsin-EDTA (Gibco, Cat #25200-072) treatment. The cells growing to a confluency around 70%-80% were harvested and counted for tumor inoculation. The cultured B16-F10 cells were harvested, re-suspended in base medium at a density of 2×10^7 cells/mL with viability>90%. 6-8 weeks of Female C57BL/6 mouse (Shanghai LingChang Biotech Co., LTD) was inoculated subcutaneously at the right flank with 1×10^6 in 0.05 mL base medium for tumor development. Tumors were calipered in two dimensions to monitor growth as the mean volume approached the desired range. Tumor volume (TV) was calculated using the formula: TV=0.5 a×b2 where a and b are the long and short diameters of the tumor.
Mice were assigned into 4 groups with 12 mice per group. […] The tumor sizes were measured three times per week during the treatment. Survival was monitored with tumor volume exceeding 2000 mm3 as endpoint. […]
As for `COCCO[C@H]1CC[C@H](NC(=O)c2nc(-n3ccnc3)nc3cc[nH]c23)CC1` [Example 7, 2-(1H-Imidazol-1-yl)-N-((1r,4r)-4-(2-methoxyethoxy)cyclohexyl)-5H-pyrrolo[3,2-d]pyrimidine-4-carboxamide], the “percent survival of B16-F10 tumor bearing mice” value is reported as “significant survival benefit”.
